In patent EP0465913B1, “Diaminotrifluoromethylpyrimidine derivatives, process for their production and phospholipase A2 inhibitor containing them” (ISHIHARA SANGYO KAISHA, LTD., priority 1990, dated 1992):
Structures can show the parent of a compound that is named as a salt.

Experiments:
carrageenin edema = assay: Inhibitory activity on carrageenin edema; format: in vivo, Wistar male rats; settings: rat, paw swelling volume three hours after carrageenin; for inhibition in vivo at 100 mg/kg: po, 3 h, dose 100 mg/kg orally, read-out: Inhibition rate (%); for Inhibition rate (%): dose 50 mg/kg orally
Outline: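 Male Wistar rats (about 100 g, 5 per group) dosed orally at 200, 100, 50 or 25 mg/kg as 2% Tween 80 suspension or aqueous salt solution, 1 h before subplantar injection of 0.1 ml 1% λ-carrageenin. Paw swelling measured at 3 h; % inhibition versus control group mean swelling.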

[1] = test system: increased vascular permeability induced by acetic acid; assay: Inhibitory activity on increased vascular permeability induced by acetic acid (Mouse Whittle method, method C); format: in vivo, ddy male mice; settings: amount of leaked dye
Outline: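 ddy male mice (4-5 per group) dosed orally with compound in 2% Tween 80 suspension or aqueous salt solution. Dye measured at 600 nm; inhibition % calculated versus vehicle control leakage.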

[2] = target: T1, Porcine pancreatic phospholipase A2 (Sus scrofa, UniProt P00592); assay: Phospholipase A2 inhibitory activity, method B (L-α-dipalmitoylphosphatidylcholine substrate); format: biochemical; settings: 37°C for 30 minutes; for inhibition at 1000 ppm: 1,000 ppm, read-out: % inhibition of PLA2 (1,000 ppm)
T1 construct: purchased Boehringer Mannheim·Yamanouchi K.K. 161454·122416
T1 sequence (P00592 23-146): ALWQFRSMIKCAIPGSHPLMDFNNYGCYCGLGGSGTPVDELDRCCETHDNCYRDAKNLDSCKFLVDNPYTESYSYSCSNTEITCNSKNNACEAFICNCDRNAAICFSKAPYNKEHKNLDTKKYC
Outline: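 Substrate: L-α-dipalmitoylphosphatidylcholine/sodium cholate mixed micelles in 250 mM NaCl, 100 mM Tris-HCl pH 8.0. Enzyme (10 µg/ml stock) incubated with compound in buffer containing CaCl2 and BSA, 30 min at 37 °C. Released free fatty acid measured by ACS-ACOD at 540 nm; % inhibition derived from apparent enzyme concentration read off a standard curve.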

[3] = test system: increased vascular permeability induced by acetic acid; assay: Inhibitory activity on increased vascular permeability induced by acetic acid (Rat Whittle method, method D); format: in vivo, SD (Crj: CD) male rats; settings: amount of leaked dye
Procedure: Using SD (Crj: CD) male rats, each test group consisted of from 3 to 5 rats. A test compound was mixed with Tween 80 [polyoxyethylenesorbitan monooleate (manufactured by Nacalai Tesque K.K.)], and distilled water was added thereto to obtain a 2% Tween 80 suspension, or it was dissolved in the form of a salt in water to obtain an aqueous solution. A test compound was orally administered, and one hour later, 0.7% acetic acid was intraperitonially injected to each rat in an amount of 0.05 ml/10 g, and at the same time, 2% brilliant blue was intravenously injected into the tail vein in an amount of 0.05 ml/20 g. Thirty minutes after the injection of brilliant blue, the cervical vertebrae were dislocated under anesthesia by chloroform, and the abdorminal cavity was washed with 10 ml of a physiological saline. The washing solution was subjected to centrifugal separation at 3,000 rpm for 10 minutes, and the amount of the dye in the supernatant was measured at 600 nm absorbance by Microplate ELISA Reader (Model 2550EIA Reader, manufactured by Bio-Rad Laboratories). The inhibition rate of the amount of leaked dye in the group to which a test compound was administered relative to the control group was obtained from the following formula, and the results are shown in Table 9. Inhibition rate (%) = (l -(C)/(D)) x 100 [formula] • C: Amount of leaked dye in the group to which a test compound was administered. • D: Amount of leaked dye in the control group.

CS(=O)(=O)Nc1ncc(C(F)(F)F)cc1NC(=O)c1ccc(F)cc1 [Compound No. 10, N-(2-methylsulfonylamino-5-trifluoromethyl-3-pyridyl)-4-fluorobenzamide]
inhibition in vivo at 100 mg/kg (carrageenin edema): 28%
Inhibition rate (%) ([1]; dose 10 mg/kg orally): 42%
inhibition at 1000 ppm [2]: 51%

CCS(=O)(=O)Nc1ncc(C(F)(F)F)cc1NC(=O)C1CCCCC1 [Compound No. 47, N-(2-ethylsulfonylamino-5-trifluoromethyl-3-pyridyl)cyclohexanecarboxamide]
Inhibition rate (%) (carrageenin edema; 50 mg/kg): 41%
Inhibition rate (%) ([1]; dose 10 mg/kg orally): 46%
inhibition at 1000 ppm [2]: 90%

CCS(=O)(=O)Nc1ncc(C(F)(F)F)cc1NC(=O)C1CCCCC1 [Compound No. 251, sodium salt of N-(2-ethylsulfonylamino-5-trifluoromethyl-3-pyridyl)cyclohexanecarboxamide]
Inhibition rate (%) (carrageenin edema; 50 mg/kg): 30%
Inhibition rate (%) ([3]; dose 12.5 mg/kg orally): 46%
Inhibition rate (%) ([1]; dose 20 mg/kg orally, 20 mg/kg): 43%
% inhibition of PLA2 (1,000 ppm) [2]: 85%

CS(=O)(=O)Nc1ncc(C(F)(F)F)cc1NC(=O)C(F)(F)C(F)(F)F [compound 13]
inhibition in vivo at 100 mg/kg (carrageenin edema): 21%
Inhibition rate (%) ([1]; dose 100 mg/kg orally): 57%
inhibition at 1000 ppm [2]: 51%

CS(=O)(=O)Nc1ncc(C(F)(F)F)cc1NC(=O)c1ccccc1 [compound 43]
Inhibition rate (%) (carrageenin edema): 31%
Inhibition rate (%) ([1]; dose 20 mg/kg orally): 48%
inhibition at 1000 ppm [2]: 49%

CS(=O)(=O)Nc1ncc(C(F)(F)F)cc1NC(=O)C1CCCC1 [compound 45]
Inhibition rate (%) (carrageenin edema): 23%
Inhibition rate (%) ([1]; dose 20 mg/kg orally): 29%
inhibition at 1000 ppm [2]: 41%

Cc1cccc(C(=O)Nc2cc(C(F)(F)F)cnc2NS(C)(=O)=O)c1 [compound 78]
Inhibition rate (%) (carrageenin edema): 26%
Inhibition rate (%) ([3]; dose 25 mg/kg orally): 40%
Inhibition rate (%) ([1]; dose 10 mg/kg orally): 32%
inhibition at 1000 ppm [2]: 51%

CS(=O)(=O)Nc1ncc(C(F)(F)F)cc1NC(=O)c1cccc(Cl)c1 [compound 79]
Inhibition rate (%) (carrageenin edema): 20%
Inhibition rate (%) ([3]; dose 50 mg/kg orally): 74%
Inhibition rate (%) ([1]; dose 20 mg/kg orally): 67%
inhibition at 1000 ppm [2]: 65%

CS(=O)(=O)Nc1ncc(C(F)(F)F)cc1NC(=O)c1cc2ccccc2s1 [compound 86]
Inhibition rate (%) (carrageenin edema): 27%
Inhibition rate (%) ([3]; dose 50 mg/kg orally): 37%
Inhibition rate (%) ([1]; dose 20 mg/kg orally): 42%
inhibition at 1000 ppm [2]: 93%

CS(=O)(=O)Nc1ncc(C(F)(F)F)cc1NC(=O)c1ccc2c(c1)CCC2 [compound 87]
Inhibition rate (%) (carrageenin edema): 21%
Inhibition rate (%) ([3]; dose 12.5 mg/kg orally): 47%
Inhibition rate (%) ([1]; dose 10 mg/kg orally): 28%
inhibition at 1000 ppm [2]: 88%

C/C=C/C(=O)Nc1cc(C(F)(F)F)cnc1NS(=O)(=O)CC [compound 93, N-(2-ethylsulfonylamino-5-trifluoromethyl-3-pyridyl)crotonamide]
Inhibition rate (%) (carrageenin edema): 22%
Inhibition rate (%) ([3]; dose 25 mg/kg orally): 54%
Inhibition rate (%) ([1]; dose 10 mg/kg orally): 40%
inhibition at 1000 ppm [2]: 48%

CCS(=O)(=O)Nc1ncc(C(F)(F)F)cc1NC(=O)C1CCCC1 [compound 94]
Inhibition rate (%) (carrageenin edema): 23%
Inhibition rate (%) ([3]; dose 25 mg/kg orally): 45%
Inhibition rate (%) ([1]; dose 20 mg/kg orally): 53%
inhibition at 1000 ppm [2]: 63%
